Data set [1] addresses T1, Quinolone resistance protein NorA (Staphylococcus aureus) (UniProt P0A0J7).
T1 sequence (whole entry): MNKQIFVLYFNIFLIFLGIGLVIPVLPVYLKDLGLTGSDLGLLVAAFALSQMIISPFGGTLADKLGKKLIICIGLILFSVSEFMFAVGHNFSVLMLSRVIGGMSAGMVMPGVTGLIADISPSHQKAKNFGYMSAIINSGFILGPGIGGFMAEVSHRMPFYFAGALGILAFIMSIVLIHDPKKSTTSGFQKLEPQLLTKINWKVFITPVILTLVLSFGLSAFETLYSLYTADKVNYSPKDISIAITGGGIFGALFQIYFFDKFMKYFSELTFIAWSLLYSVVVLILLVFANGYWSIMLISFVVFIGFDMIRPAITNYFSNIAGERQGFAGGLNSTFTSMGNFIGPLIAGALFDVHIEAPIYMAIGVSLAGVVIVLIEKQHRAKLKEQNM
Briefly: Inhibition of Staphylococcus aureus 1199B NorA assessed as inhibition of ethidium bromide efflux at 50 uM measured after 5 mins by fluorometric method relative to control.

The subject of another data set is Staphylococcus aureus. Briefly: Antibacterial activity against Staphylococcus aureus 1199B by microdilution method. In kind it is functional. (Broth dilution looks for growth in wells or tubes with falling amounts of substance.)
Data set [2] deals with T1, Quinolone resistance protein NorA (Staphylococcus aureus). Put plainly: Inhibition of Staphylococcus aureus 1199B NorA assessed as potentiation of ciprofloxacin-induced antibacterial activity by checkerboard assay.
A short description of data set [3]: Metabolic stability in human liver microsomes at 10 uM preincubated for 10 mins followed by NADPH addition measured after 30 mins by HPLC-MS/MS method. It counts as ADME. The conditions noted are these: 0.5 h.
A short description of data set [4]: Dissociation constant, pKa of the compound. It counts as physicochemical.
The target of data set [5] is T2, Quinolone resistance protein NorA (Staphylococcus aureus, UniProt P0A0J7).
T2 sequence (P0A0J7 whole entry): T1 sequence (whole entry)
Put plainly: Inhibition of Staphylococcus aureus 1199B NorA assessed as inhibition of ethidium bromide efflux measured after 5 mins by fluorometric method.

A short description of data set [6]: Solubility in D2O solution at 25 degC by 1H NMR analysis. It counts as physicochemical.

From ChEMBL document CHEMBL3877305, “Improved Potency of Indole-Based NorA Efflux Pump Inhibitors: From Serendipity toward Rational Design and Development” (J Med Chem, 2017) come the findings set out here.

In brackets after ≈: the same amount, converted by molar mass.

Take `COc1cc(CNCCO)ccc1Oc1nnnn1-c1ccccc1`: the inhibition (usually the relative decrease from the control value, in per cent) in data set [1] is less than 10%.
The same measure, in the same setting: then `CCOC(=O)c1c(C)n(Cc2ccccc2)c2ccc(OCCCN3CCN(CCCOc4ccc(F)cc4)CC3)cc12`, with 53.7%.
Turning to `CCOC(=O)c1c(C)n(Cc2ccccc2)c2ccc(OCCCNCc3ccccc3)cc12`, the minimal inhibitory concentration (MIC) (as a rule, the lowest concentration that inhibits growth of the organism) against Staphylococcus aureus is greater than 100 mg/L.
`CCOC(=O)c1c(C)n(Cc2ccccc2)c2ccc(OCCCNCc3ccc(Oc4nnnn4-c4ccccc4)c(OC)c3)cc12` had an MIC against Staphylococcus aureus greater than 100 mg/L. For the same compound, in data set [2], the fractional inhibitory concentration index (FICI) was 0.27. Moreover, in data set [1], the inhibition lay in the range of 95 to 96.5%. Further, the Stability entry in data set [3] is given as “Stable”. In data set [4], the pKa (usually the negative logarithm of the acid dissociation constant) was determined as 7.21. The IC50 (in general, the concentration that inhibits the measured activity by half) in data set [5] lay in the range of 1.8 to 1.82 µM. Besides, the solubility (usually how much of the substance goes into solution per volume) in data set [6] is less than 2 µM.
On to `CCOC(=O)c1c(C)n(Cc2ccccc2)c2ccc(OCCCN)cc12`, for which the MIC in the data set on Staphylococcus aureus is greater than 100 mg/L.
With `OCCCN1CCN(CCCOc2ccccc2-c2ccccc2)CC1`, the inhibition in data set [1] was less than 10%.
Regarding `CCOC(=O)c1c(C)n(Cc2ccccc2)c2ccc(OCC(O)CNCC(O)COc3ccc4c(c3)c(C(=O)OCC)c(C)n4Cc3ccccc3)cc12` (stereo not given), the inhibition in data set [1] was in the range of 78 to 100%. Moreover, the half-maximal inhibitory concentration (IC50) in data set [5] is 19.9 µM.
As for `CCOC(=O)c1c(C)n(Cc2ccccc2)c2ccc(OCCCNCc3nnnn3-c3ccccc3)cc12`, the inhibition in data set [1] stood at 22.8%.
Take `CCOC(=O)c1c(C)n(Cc2ccccc2)c2ccc(OCCCNCc3ccc(F)c(OC)c3)cc12`: the MIC in the data set on Staphylococcus aureus stood at 6.3 mg/L (≈ 12.5 µM). The inhibition in data set [1] was determined as 67%. Also, the IC50 in data set [5] stood at 3.83 µM.
Consider `CCOC(=O)c1c(C)n(Cc2ccccc2)c2ccc(OCCNCc3ccc(Oc4nnnn4-c4ccccc4)c(OC)c3)cc12`, for which, in data set [1], the inhibition was found to be 50.3%.
Take `CCOC(=O)c1c(C)n(Cc2ccccc2)c2ccc(OCC(O)CNCc3ccc(Oc4nnnn4-c4ccccc4)c(OC)c3)cc12` (stereo not given): in the data set on Staphylococcus aureus, the MIC was greater than 100 mg/L. Further, the fractional inhibitory concentration index (FICI) in data set [2] was found to be 0.13. Also, in data set [1], the inhibition came to 96.9%. Further, the IC50 in data set [5] is 4.93 µM.
Compound `CCOC(=O)c1c(C)n(Cc2ccccc2)c2ccc(OCCCCNCc3ccc(Oc4nnnn4-c4ccccc4)c(OC)c3)cc12` displayed an MIC with Staphylococcus aureus greater than 100 mg/L. In data set [2], the fractional inhibitory concentration index (FICI) was determined as 0.25. Moreover, the inhibition in data set [1] came out at 101%. Moreover, the Stability result in data set [3] is “Stable”. The same compound registered a pKa in data set [4] of 8.2. The IC50 in data set [5] was found to be 2.02 µM. The compound also showed a solubility in data set [6] of less than 2 µM.
`CCOC(=O)c1c(C)n(Cc2ccccc2)c2ccc(OCCCN3CCN(CCCOc4ccccc4-c4ccccc4)CC3)cc12`: the inhibition in data set [1] was 12.1%.
On the same count and under the same terms, next, `CCOC(=O)c1c(C)n(Cc2ccccc2)c2ccc(OCCN3CCN(CCOc4ccccc4-c4ccccc4)CC3)cc12`: 24.3 to 50%.
Take `CCOC(=O)c1c(C)n(Cc2ccccc2)c2ccc(OCCCN3CCCCC3)cc12`: the MIC against Staphylococcus aureus was greater than 100 mg/L. Further, in data set [2], the fractional inhibitory concentration index (FICI) was determined as 0.28.
With `CCOC(=O)c1c(C)n(Cc2ccccc2)c2ccc(OCCN3CCN(CCCOc4ccccc4-c4ccccc4)CC3)cc12`, the inhibition in data set [1] turned out to be 27.1%.
